Reference: patent US20230019491A1, “PYRIMIDINE TBK/IKKe INHIBITOR COMPOUNDS AND USES THEREOF” (Merck Patent GmbH, priority 2017, published 2023)
Counter-ions that a name gives are not always drawn.

What was measured:
IKKε = target: T1, IKKε (Homo sapiens, UniProt Q14164); experiment: IKKε biochemical assay; conditions: 10 point 1:4 dose response, 30 uM top concentration, 90 min at 25° C., LabChip EZ Reader II; read-out: IKKε_IC50
T1 sequence (Q14164 1-716): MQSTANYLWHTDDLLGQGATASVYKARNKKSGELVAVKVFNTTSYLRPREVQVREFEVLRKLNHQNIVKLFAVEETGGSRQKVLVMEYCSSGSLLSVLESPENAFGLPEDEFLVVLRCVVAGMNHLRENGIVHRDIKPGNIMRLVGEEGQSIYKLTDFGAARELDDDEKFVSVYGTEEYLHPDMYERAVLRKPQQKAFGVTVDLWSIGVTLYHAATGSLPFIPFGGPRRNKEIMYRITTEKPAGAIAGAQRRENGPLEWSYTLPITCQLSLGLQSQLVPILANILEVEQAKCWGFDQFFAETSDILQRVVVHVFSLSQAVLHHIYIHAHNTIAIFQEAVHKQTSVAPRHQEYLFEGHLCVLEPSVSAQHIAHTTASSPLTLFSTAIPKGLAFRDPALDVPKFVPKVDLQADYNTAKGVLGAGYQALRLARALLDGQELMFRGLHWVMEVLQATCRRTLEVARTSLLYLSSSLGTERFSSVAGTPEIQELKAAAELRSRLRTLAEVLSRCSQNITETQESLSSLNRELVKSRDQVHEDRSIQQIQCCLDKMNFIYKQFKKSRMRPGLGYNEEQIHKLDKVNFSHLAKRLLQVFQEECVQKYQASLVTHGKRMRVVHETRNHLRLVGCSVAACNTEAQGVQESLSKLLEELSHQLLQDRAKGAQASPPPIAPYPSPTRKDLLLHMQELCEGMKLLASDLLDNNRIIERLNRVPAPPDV
In short: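 Compounds in 1% DMSO final were incubated with IKKε enzyme and substrate at 25° C. for 90 min, then stopped. Substrate and product peaks were resolved by LabChip EZ Reader II mobility-shift read-out. Staurosporine at 10 uM final served as the full-inhibition control.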

TBK1 = target: T2, TBK1 (Homo sapiens, UniProt Q9UHD2); experiment: TBK biochemical assay; conditions: 10 point 1:4 dose response, 30 uM top concentration, 90 min at 25° C., LabChip EZ Reader II; read-out: TBK1_IC50
T2 sequence (Q9UHD2 1-729): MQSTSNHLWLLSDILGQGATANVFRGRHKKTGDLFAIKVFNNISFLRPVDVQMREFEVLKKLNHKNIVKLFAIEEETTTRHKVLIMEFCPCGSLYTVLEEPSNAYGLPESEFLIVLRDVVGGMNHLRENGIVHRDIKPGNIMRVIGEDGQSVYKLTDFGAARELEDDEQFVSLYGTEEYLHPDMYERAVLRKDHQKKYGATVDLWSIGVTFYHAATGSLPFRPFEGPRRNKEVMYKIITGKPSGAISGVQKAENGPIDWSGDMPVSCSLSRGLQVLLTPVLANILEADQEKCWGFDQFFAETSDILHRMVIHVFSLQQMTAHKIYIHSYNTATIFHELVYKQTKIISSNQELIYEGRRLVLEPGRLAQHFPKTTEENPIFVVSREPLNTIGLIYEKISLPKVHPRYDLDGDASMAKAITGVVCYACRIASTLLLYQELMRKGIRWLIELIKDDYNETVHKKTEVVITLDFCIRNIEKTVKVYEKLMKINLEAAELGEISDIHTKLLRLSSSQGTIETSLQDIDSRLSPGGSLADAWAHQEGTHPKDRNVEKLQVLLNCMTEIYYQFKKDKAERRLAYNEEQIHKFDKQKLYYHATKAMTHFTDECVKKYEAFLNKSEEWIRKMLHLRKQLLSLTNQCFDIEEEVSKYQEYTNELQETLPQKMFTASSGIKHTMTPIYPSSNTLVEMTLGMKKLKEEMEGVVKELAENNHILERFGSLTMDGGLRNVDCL
In short: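 Substrate and product were separated and quantified by microfluidic mobility-shift read (LabChip). 10 uM staurosporine served as the full-inhibition control, and the reference compound was tested from 1 uM final.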

| Structure (SMILES) | IC50 (IKKε) | IC50 (TBK1) |
| --- | --- | --- |
| COc1nc(Nc2nccc(-c3ccc(OC4CCOCC4)c(C#N)c3)n2)ccc1C(=O)N1CC2CCC1CO2 (stereo not drawn) [Example 11, 5-(2-[[6-methoxy-5-([2-oxa-5-azabicyclo[2.2.2]octan-5-yl]carbonyl)pyridin-2-yl]amino]pyrimidin-4-yl)-2-(oxan-4-yloxy)benzonitrile] | < 100 nM | < 100 nM |
| COc1nc(Nc2nccc(-c3ccc(OC4CCN(C(=O)[C@@H](C)O)CC4(F)F)c(C#N)c3)n2)ccc1N1CCN(C)[C@@H](C)C1 (stereo partly drawn) [Example 102, 2-[3,3-Difluoro-1-((R)-2-hydroxy-propionyl)-piperidin-4-yloxy]-5-{2-[5-((S)-3,4-dimethyl-piperazin-1-yl)-6-methoxy-pyridin-2-ylamino]-pyrimidin-4-yl}-benzonitrile] | < 100 nM | < 100 nM |
| C[C@H](O)C(=O)N1CCC(Oc2ccc(-c3ccnc(Nc4cccc(C5CCN(C(CO)CO)CC5)c4)n3)cc2C#N)C(F)(F)C1 (stereo partly drawn) [Example 157, 2-[3,3-Difluoro-1-((S)-2-hydroxy-propionyl)-piperidin-4-yloxy]-5-(2-{3-[1-(2-hydroxy-1-hydroxymethyl-ethyl)-piperidin-4-yl]-phenylamino}-pyrimidin-4-yl)-benzonitrile] | < 100 nM | < 100 nM |
| COc1nc(Nc2nccc(-c3ccc(O[C@H]4CCN(C(=O)[C@H](C)O)C[C@H]4F)c(C#N)c3)n2)ccc1N1CCN(C2COC2)CC1 [Example 199, 2-[[(3R,4S)-3-fluoro-1-[(2S)-2-hydroxypropanoyl]piperidin-4-yl]oxy]-5-[2-([6-methoxy-5-[4-(oxetan-3-yl)piperazin-1-yl]pyridin-2-yl]amino)pyrimidin-4-yl]benzonitrile] | < 100 nM | < 100 nM |
| COc1nc(Nc2nccc(-c3cc(C#N)c(OC4CCOCC4)cn3)n2)ccc1N1CCN(C)CC1 [Example 44, 2-(2-[[6-methoxy-5-(4-methylpiperazin-1-yl)pyridin-2-yl]amino]pyrimidin-4-yl)-5-(oxan-4-yloxy)pyridine-4-carbonitrile hydrochloride] | > 5000 nM | 1000 to 5000 nM |
| COc1nc(Nc2nccc(-c3ccc(OC4CCN(C(=O)CO)CC4)c(C#N)c3)n2)ccc1N1CCN(C2COC2)CC1 [Example 186, 2-(1-(2-hydroxyacetyl)piperidin-4-yloxy)-5-(2-(6-methoxy-5-(4-(oxetan-3-yl)piperazin-1-yl)pyridin-2-ylamino)pyrimidin-4-yl)benzonitrile] | < 100 nM | < 100 nM |
| COc1nc(Nc2nccc(-c3ccc(OC4CCN(C(=O)[C@@H](C)O)CC4(F)F)c(C#N)c3)n2)ccc1N1CCN(C2COC2)[C@H](C)C1 (stereo partly drawn) [Example 126, 2-[3,3-Difluoro-1-((R)-2-hydroxy-propionyl)-piperidin-4-yloxy]-5-{2-[6-methoxy-5-((R)-3-methyl-4-oxetan-3-yl-piperazin-1-yl)-pyridin-2-ylamino]-pyrimidin-4-yl}-benzonitrile] | < 100 nM | < 100 nM |
| N#Cc1cc(-c2ccnc(Nc3ccc(N4CCN(C5COC5)CC4)cc3)n2)ccc1OC1CCN(C(=O)CO)CC1(F)F (stereo not drawn) [Example 137, 2-[[3,3-difluoro-1-(2-hydroxyacetyl)piperidin-4-yl]oxy]-5-[2-([4-[4-(oxetan-3-yl)piperazin-1-yl]phenyl]amino)pyrimidin-4-yl]benzonitrile] | < 100 nM | < 100 nM |
| CN(C)C(=O)c1ccc(Nc2nccc(-c3ccc(OC4CCOCC4)c(C#N)n3)n2)cn1 [Example 28, 5-([4-[6-cyano-5-(oxan-4-yloxy)pyridin-2-yl]pyrimidin-2-yl]amino)-N,N-dimethylpyridine-2-carboxamide] | < 100 nM | < 100 nM |

Next, values leading:

| IC50 (IKKε) | IC50 (TBK1) | Structure (SMILES) |
| --- | --- | --- |
| < 100 nM | < 100 nM | COc1nc(Nc2ncc(F)c(-c3ccc(OC4CCN(C(=O)CO)CC4(F)F)c(C#N)c3)n2)ccc1N1CCN(C2COC2)CC1 (stereo not drawn) [Example 290, 2-{[3,3-difluoro-1-(2-hydroxyacetyl)piperidin-4-yl]oxy}-5-[5-fluoro-2-({6-methoxy-5-[4-(oxetan-3-yl)piperazin-1-yl]pyridin-2-yl}amino)pyrimidin-4-yl]benzonitrile] |
| < 100 nM | < 100 nM | COc1nc(Nc2nccc(-c3ccc(OC4CCN(C(=O)[C@H](C)OC)CC4(F)F)c(C#N)c3)n2)ccc1N1CCN(C2COC2)CC1 (stereo partly drawn) [Example 246, 2-[3,3-Difluoro-1-((S)-2-methoxy-propionyl)-piperidin-4-yloxy]-5-{2-[6-methoxy-5-(4-oxetan-3-yl-piperazin-1-yl)-pyridin-2-ylamino]-pyrimidin-4-yl}-benzonitrile] |
| < 100 nM | < 100 nM | C[C@H](O)C(=O)N1CCC(Oc2ccc(-c3ccnc(Nc4ccc(N5CCN(C6COC6)CC5)cn4)n3)cc2C#N)C(F)(F)C1 (stereo partly drawn) [Example 245, 2-([33-difluoro-1-[(2S)-2-hydroxypropanoyl]piperidin-4-yl]oxy)-5-[2-([5-[4-(oxetan-3-yl)piperazin-1-yl]pyridin-2-yl]amino)pyrimidin-4-yl]benzonitrile] |
| 100 to 1000 nM | 100 to 1000 nM | COc1nc(Nc2nccc(-c3ccc(O[C@@H]4CCNC[C@@H]4F)c(C#N)c3)n2)ccc1C1CCN(C2COC2)CC1 [Example 235, 2-((3S,4R)-3-Fluoro-piperidin-4-yloxy)-5-[2-(2-methoxy-1′-oxetan-3-yl-1′,2′,3′,4′,5′,6′-hexahydro-[3,4′]bipyridinyl-6-ylamino)-pyrimidin-4-yl]-benzonitrile] |
| < 100 nM | < 100 nM | Cc1nc(C(=O)N2CCC(Oc3ccc(-c4ccnc(Nc5ccc(N6CCN(C)CC6)cc5)n4)cc3C#N)CC2)n[nH]1 [Example 203, 2-[[1-(5-methyl-1H-1,2,4-triazole-3-carbonyl)piperidin-4-yl]oxy]-5-(2-[[4-(4-methylpiperazin-1-yl)phenyl]amino]pyrimidin-4-yl)benzonitrile] |
| < 100 nM | < 100 nM | C[C@H](O)C(=O)N1CCC(Oc2ccc(-c3ccnc(Nc4ccccc4)n3)cc2C#N)C(F)(F)C1 (stereo partly drawn) [Example 209, 2-[3,3-Difluoro-1-((S)-2-hydroxy-propionyl)-piperidin-4-yloxy]-5-(2-phenylamino-pyrimidin-4-yl)-benzonitrile] |
| < 100 nM | < 100 nM | COc1nc(Nc2nccc(-c3ccc(OC4(C)CCN(C(=O)[C@@H](O)CO)CC4)c(C#N)c3)n2)ccc1N1CCN(C2COC2)CC1 [Example 269, 2-[1-((S)-2,3-Dihydroxy-propionyl)-4-methyl-piperidin-4-yloxy]-5-{2-[6-methoxy-5-(4-oxetan-3-yl-piperazin-1-yl)-pyridin-2-ylamino]-pyrimidin-4-yl}-benzonitrile] |
| < 100 nM | < 100 nM | COc1nc(Nc2nccc(-c3ccc(OC4CCN(C(=O)[C@@H](O)C(C)C)CC4(F)F)c(C#N)c3)n2)ccc1C1CCN(C2COC2)CC1 (stereo partly drawn) [Example 236, 2-[3,3-Difluoro-1-((S)-2-hydroxy-3-methyl-butyryl)-piperidin-4-yloxy]-5-[2-(2-methoxy-1′-oxetan-3-yl-1′,2′,3′,4′,5′,6′-hexahydro-[3,4′]bipyridinyl-6-ylamino)-pyrimidin-4-yl]-benzonitrile] |
| < 100 nM | < 100 nM | COc1nc(Nc2nccc(-c3ccc(OC4CCN(C(=O)CO)CC4(F)F)c(C#N)c3)n2)ccc1C1CCN(C)CC1 (stereo not drawn) [Example 234, 2-[[3,3-difluoro-1-(2-hydroxyacetyl)piperidin-4-yl]oxy]-5-(2-[[6-methoxy-5-(l-methylpiperidin-4-yl)pyridin-2-yl]amino]pyrimidin-4-yl)benzonitrile] |
